Data from ChEMBL document CHEMBL4138182, “Aminomethylation of heliomycin: Preparation and anticancer characterization of the first series of semi-synthetic derivatives” (Eur J Med Chem, 2018).
Active and inactive are the calls of the source. The rule behind the calls is not given here.

Columns and labels:
[1] = system: HCT-116; test: Antiproliferative activity against human HCT116 cells after 72 hrs by MTT assay; assay type: functional, cell-based; details: HCT-116, 72 h
[2] = system: HCT-116; test: Antiproliferative activity against p53 deficient human HCT116 cells after 72 hrs by MTT assay; assay type: functional, cell-based; details: HCT-116, 72 h
[3] = system: K562; test: Antiproliferative activity against human K562 cells after 72 hrs by MTT assay; assay type: functional, cell-based; details: K562, 72 h
[4] = Antiproliferative activity against human K562/4 cells after 72 hrs by MTT assay; assay type: functional, cell-based; details: K562/4, 72 h
[5] = system: L1210; test: Antiproliferative activity against mouse L1210 cells after 72 hrs by MTT assay; assay type: functional, cell-based; details: L1210, 72 h
[6] = system: CCRF-CEM; test: Antiproliferative activity against human CEM cells after 72 hrs by MTT assay; assay type: functional, cell-based
[7] = system: HeLa; test: Antiproliferative activity against human HeLa cells after 72 hrs by MTT assay; assay type: functional, cell-based
[8] = system: HMEC-1; test: Antiproliferative activity against HMEC1 cells after 72 hrs by MTT assay; assay type: cell-based; details: Homo sapiens, HMEC-1, 72 h
[9] = Selectivity index, ratio of IC50 for HMEC1 cells to IC50 for human HCT116 cells; assay type: toxicity; details: HMEC1 cells and HCT116 cells, read-out: Ratio IC50
[10] = Selectivity index, ratio of IC50 for HMEC1 cells to IC50 for p53 deficient human HCT116 cells; assay type: toxicity; details: HMEC1 cells and p53 deficient HCT116 cells, read-out: Ratio IC50
[11] = Selectivity index, ratio of IC50 for HMEC1 cells to IC50 for human K562 cells; assay type: toxicity; details: HMEC1 cells and K562 cells, read-out: Ratio IC50
[12] = Selectivity index, ratio of IC50 for HMEC1 cells to IC50 for human K562/4 cells; assay type: toxicity; details: HMEC1 cells and K562/4 cells, read-out: Ratio IC50
[13] = Selectivity index, ratio of IC50 for HMEC1 cells to IC50 for mouse L1210 cells; assay type: toxicity; details: HMEC1 cells and L1210 cells, read-out: Ratio IC50
[14] = Selectivity index, ratio of IC50 for HMEC1 cells to IC50 for human CEM cells; assay type: toxicity; details: HMEC1 cells and CEM cells, read-out: Ratio IC50
[15] = Selectivity index, ratio of IC50 for HMEC1 cells to IC50 for human HeLa cells; assay type: toxicity; details: HMEC1 cells and HeLa cells, read-out: Ratio IC50
[16] = target: T1, DNA topoisomerase 1 (Homo sapiens) (UniProt P11387); test: Inhibition of human DNA topoisomerase 1 assessed as decrease in relaxation of pBR322 at <= 20 uM after 30 to 40 mins by agarose gel electrophoresis
T1 sequence (whole entry): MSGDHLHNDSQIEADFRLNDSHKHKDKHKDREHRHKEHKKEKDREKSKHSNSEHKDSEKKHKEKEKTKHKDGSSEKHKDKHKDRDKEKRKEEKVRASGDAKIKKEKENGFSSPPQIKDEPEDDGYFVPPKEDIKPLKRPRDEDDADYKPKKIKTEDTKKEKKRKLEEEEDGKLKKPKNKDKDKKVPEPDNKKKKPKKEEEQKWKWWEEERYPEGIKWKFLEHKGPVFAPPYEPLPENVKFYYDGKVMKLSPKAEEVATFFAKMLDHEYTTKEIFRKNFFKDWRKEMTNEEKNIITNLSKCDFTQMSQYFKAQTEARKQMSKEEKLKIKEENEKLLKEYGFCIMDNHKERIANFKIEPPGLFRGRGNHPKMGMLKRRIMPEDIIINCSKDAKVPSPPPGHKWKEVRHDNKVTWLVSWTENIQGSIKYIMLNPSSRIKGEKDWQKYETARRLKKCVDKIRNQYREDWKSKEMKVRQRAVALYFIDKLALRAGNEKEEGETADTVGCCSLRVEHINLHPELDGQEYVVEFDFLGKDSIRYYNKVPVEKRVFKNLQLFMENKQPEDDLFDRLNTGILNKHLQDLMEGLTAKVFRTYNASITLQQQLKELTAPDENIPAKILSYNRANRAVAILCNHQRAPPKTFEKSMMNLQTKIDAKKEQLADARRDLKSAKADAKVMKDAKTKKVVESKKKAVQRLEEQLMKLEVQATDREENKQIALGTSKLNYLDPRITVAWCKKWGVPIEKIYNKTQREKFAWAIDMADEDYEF

[17] = system: Calf thymus DNA; test: Binding affinity to calf thymus double stranded DNA at 10 uM by fluorescence spectrophotometer; assay type: nucleic-acid assay; details: Bos taurus
[18] = system: Calf thymus DNA; test: Binding affinity to calf thymus double stranded DNA by Benesi-Hildebrand plot analysis; assay type: nucleic-acid assay, Bos taurus; details: for Kb: Bos taurus
[19] = system: T-24; test: Growth inhibition of human T24 cells after 72 hrs by cell impedance method; assay type: functional, cell-based; details: T-24, 72 h
[20] = system: T-24; test: Induction of apoptosis n human T24 cells at 1 uM after 24 hrs by annexin V-FITC/propidium iodide staining-based flow cytometric method; assay type: functional, cell-based
[21] = system: T-24; test: Induction of apoptosis n human T24 cells assessed as upregulation of p53 levels at 0.5 to 1 uM after 18 hrs by Western blot method; assay type: functional, cell-based
[22] = system: T-24; test: Induction of apoptosis n human T24 cells assessed as upregulation of Bak levels at 0.5 to 1 uM after 18 hrs by Western blot method; assay type: functional, cell-based
[23] = system: T-24; test: Induction of apoptosis n human T24 cells assessed as downregulation of Bcl-2 levels at 0.5 to 1 uM after 18 hrs by Western blot method; assay type: functional, cell-based
[24] = system: T-24; test: Induction of apoptosis n human T24 cells assessed as caspase-3 cleavage at 0.5 to 1 uM after 18 hrs by Western blot method; assay type: functional, cell-based
[25] = system: T-24; test: Induction of apoptosis n human T24 cells assessed as PARP cleavage at 0.5 to 1 uM after 18 hrs by Western blot method; assay type: functional, cell-based
[26] = system: T-24; test: Induction of reactive oxygen species generation in human T24 cells at 1 uM after 30 mins by H2DCFDA dye-based flow cytometric method; assay type: functional, cell-based
[27] = target: T1, DNA topoisomerase 1 (Homo sapiens); test: Inhibition of human DNA topoisomerase 1 assessed as decrease in relaxation of pBR322 at 5 to 20 uM after 30 to 40 mins by agarose gel electrophoresis
[28] = system: Calf thymus DNA; test: Binding affinity to calf thymus DNA by visible spectroscopic method; assay type: nucleic-acid assay; details: Bos taurus

Row | SMILES | IC50 [1] [nM] | IC50 [2] [nM] | IC50 [3] [nM] | IC50 [5] [nM] | IC50 [6] [nM] | IC50 [7] [nM] | IC50 [4] [nM] | also measured
1 | Cc1cc(O)c2c3c4c(cc(O)c13)C(C)(C)C(=O)c1c(O)c(CN3CCCC(O)C3)c(O)c(c1-4)C2=O (configuration not stated) | 1000 | 900 | 700 | 3400 | 2100 | 3600 | 900 | –
2 | CCOC(=O)[C@@H]1CCCN1Cc1c(O)c2c3c(c1O)C(=O)C(C)(C)c1cc(O)c4c(C)cc(O)c(c4c1-3)C2=O | 700 | 1000 | 2200 | 3500 | 1200 | 1300 | 1500 | IC50 [8]: 5900 nM; selectivity ratio [9]: 2 to 50; selectivity ratio [10]: 2 to 50; selectivity ratio [11]: 2 to 50; selectivity ratio [12]: 2 to 50; selectivity ratio [13]: 2 to 50; selectivity ratio [14]: 2 to 50; selectivity ratio [15]: 2 to 50; Topoisomerase 1 inhibition (active/inactive) [16]: Active
3 | Cc1cc(O)c2c3c4c(cc(O)c13)C(C)(C)C(=O)c1c(O)c(CN3CCOCC3)c(O)c(c1-4)C2=O | 300 | 200 | 8600 | 62000 | 24200 | 11100 | 300 | –
4 | Cc1cc(O)c2c3c4c(cc(O)c13)C(C)(C)C(=O)c1c(O)c(CN3CCN(CCO)CC3)c(O)c(c1-4)C2=O | 3700 | 1300 | 2700 | 3000 | 5200 | 4800 | 4200 | –
5 | Cc1cc(O)c2c3c4c(cc(O)c13)C(C)(C)C(=O)c1c(O)c(CN3CCNCC3)c(O)c(c1-4)C2=O | 4800 | 1800 | 2500 | 4200 | 5600 | 5400 | 5800 | –
6 | Cc1cc(O)c2c3c4c(cc(O)c13)C(C)(C)C(=O)c1c(O)c(CN3CCC(N)CC3)c(O)c(c1-4)C2=O | 1200 | 700 | 600 | 800 | 2300 | 2600 | 4100 | Activity [17]: Active; Kd [18]: 8100 nM; Kb [18]: 1.2 ×10⁵ /M; IC50 [19]: 4400 nM; Topoisomerase 1 inhibition (active/inactive) [16]: Active; inhibition [27]: Active; Activity [20]: Active; Activity [21]: Active; Activity [22]: Active; Activity [23]: Active; Activity [24]: Active; Activity [25]: Active; Activity [26]: Active
7 | COc1cccc2c1C(=O)c1c(O)c3c(c(O)c1C2=O)C[C@@](O)(C(=O)CO)C[C@@H]3O[C@H]1C[C@H](N)[C@H](O)[C@H](C)O1 | – | – | – | – | – | – | – | Kb [28]: 2 ×10⁶ /M

Continued, in another order:

Row | IC50 [1] [nM] | IC50 [2] [nM] | IC50 [3] [nM] | IC50 [5] [nM] | IC50 [6] [nM] | IC50 [7] [nM] | SMILES | IC50 [4] [nM] | also measured
8 | 200 | 600 | 5500 | 31000 | 9700 | 6500 | Cc1cc(O)c2c3c4c(cc(O)c13)C(C)(C)C(=O)c1c(O)c(CN(CC(=O)O)CC(=O)O)c(O)c(c1-4)C2=O | 3100 | IC50 [8]: 34300 nM; selectivity ratio [9]: 2 to 50; selectivity ratio [10]: 2 to 50; selectivity ratio [11]: 2 to 50; selectivity ratio [12]: 2 to 50; selectivity ratio [13]: 2 to 50; selectivity ratio [14]: 2 to 50; selectivity ratio [15]: 2 to 50; Topoisomerase 1 inhibition (active/inactive) [16]: Active
9 | 1100 | 600 | 700 | 17000 | 17100 | 28300 | Cc1cc(O)c2c3c4c(cc(O)c13)C(C)(C)C(=O)c1c(O)c(CN(C)C)c(O)c(c1-4)C2=O | 1000 | IC50 [8]: 32600 nM; selectivity ratio [9]: 2 to 50; selectivity ratio [10]: 2 to 50; selectivity ratio [11]: 2 to 50; selectivity ratio [12]: 2 to 50; selectivity ratio [13]: 2 to 50; Activity [17]: Active; Kd [18]: 34000 nM; Kb [18]: 3 ×10⁴ /M; IC50 [19]: 4700 nM; Topoisomerase 1 inhibition (active/inactive) [16]: Active; Activity [20]: Active; Activity [21]: Active; Activity [22]: Active; Activity [23]: Active; Activity [24]: Active; Activity [25]: Active; Activity [26]: Active
10 | 1600 | 1700 | 900 | 800 | 800 | 800 | CCN1CCN(Cc2c(O)c3c4c(c2O)C(=O)C(C)(C)c2cc(O)c5c(C)cc(O)c(c5c2-4)C3=O)CC1 | 3400 | –
11 | 200 | 100 | 1200 | 14100 | 7200 | 14200 | Cc1cc(O)c2c3c4c(cc(O)c13)C(C)(C)C(=O)c1c(O)c(CN3CCCC3)c(O)c(c1-4)C2=O | 3400 | –
12 | 200 | 700 | 2200 | 1900 | 1800 | 3900 | Cc1cc(O)c2c3c4c(cc(O)c13)C(C)(C)C(=O)c1c(O)c(CNCCN(C)C)c(O)c(c1-4)C2=O | 2200 | –
13 | 3600 | 1100 | 1500 | 2900 | 3400 | 2600 | Cc1cc(O)c2c3c4c(cc(O)c13)C(C)(C)C(=O)c1c(O)c(CN3CCC(N)C3)c(O)c(c1-4)C2=O (configuration not stated) | 4500 | –
14 | 300 | 100 | 300 | 3400 | 900 | 800 | Cc1cc(O)c2c3c4c(cc(O)c13)C(C)(C)C(=O)c1c(O)c(CN3CCCCC3)c(O)c(c1-4)C2=O | 800 | –
15 | 600 | 300 | 500 | 8800 | 300 | 700 | Cc1cc(O)c2c3c4c(cc(O)c13)C(C)(C)C(=O)c1c(O)c(CNC(C)(C)C)c(O)c(c1-4)C2=O | 1600 | IC50 [8]: 7800 nM; selectivity ratio [9]: 2 to 50; selectivity ratio [10]: 2 to 50; selectivity ratio [11]: 2 to 50; selectivity ratio [12]: 2 to 50; selectivity ratio [14]: 2 to 50; selectivity ratio [15]: 2 to 50; IC50 [19]: 1100 nM; Activity [20]: Active; Activity [21]: Active; Activity [22]: Active; Activity [23]: Active; Activity [24]: Active; Activity [25]: Active; Activity [26]: Active
16 | 3300 | 500 | 1200 | 2300 | 2100 | 3600 | Cc1cc(O)c2c3c4c(cc(O)c13)C(C)(C)C(=O)c1c(O)c(CN3CCN(C)CC3)c(O)c(c1-4)C2=O | 4500 | –
17 | 1100 | 500 | 400 | > 250000 | 198000 | > 250000 | CCN(CC)Cc1c(O)c2c3c(c1O)C(=O)C(C)(C)c1cc(O)c4c(C)cc(O)c(c4c1-3)C2=O | 300 | –
